Laboratory results as given in patent US12286428B2 (BRISTOL-MYERS SQUIBB COMPANY, priority 2019, dated 2025).

What was measured:
[1] = tested on: Human whole blood, IL-6 levels after TLR2 agonist lipoteichoic acid; assay: IRAK4 Whole Blood Assay; format: cell-based; conditions: compounds 60 minutes at 37° C., lipoteichoic acid 10 μg/mL for 5 hours
Procedure: IRAK4 Whole Blood Assay Human whole blood containing the anti-coagulant ACD-A was plated in 384-well plate (25 μL/well) and incubated with compounds for 60 minutes at 37° C. in a 5% CO2 incubator. The blood was stimulated with a TLR2 agonist, 10 μg/mL final concentration of lipoteichoic acid (Invivogen, San Diego, CA) in 25 μL RPMI (Gibco) for 5 hours in a 5% CO2 incubator. At the end of the incubation, plates were centrifuged at 2300 rpm for 5 minutes. Supernatants were harvested and analyzed for IL-6 levels by Flow Cytometry beads assay (BD Biosciences, San Jose, CA).

IRAK4 = target: T1, IRAK4 (Homo sapiens, UniProt Q9NWZ3); assay: IRAK4 Inhibition Assay; format: biochemical; conditions: ATP 500 μM; FL-IPTSPITTTYFFFKKK peptide […]; IRAK4 0.6 nM; 60 min room temperature; Caliper LABCHIP 3000
T1 sequence (Q9NWZ3 1-460): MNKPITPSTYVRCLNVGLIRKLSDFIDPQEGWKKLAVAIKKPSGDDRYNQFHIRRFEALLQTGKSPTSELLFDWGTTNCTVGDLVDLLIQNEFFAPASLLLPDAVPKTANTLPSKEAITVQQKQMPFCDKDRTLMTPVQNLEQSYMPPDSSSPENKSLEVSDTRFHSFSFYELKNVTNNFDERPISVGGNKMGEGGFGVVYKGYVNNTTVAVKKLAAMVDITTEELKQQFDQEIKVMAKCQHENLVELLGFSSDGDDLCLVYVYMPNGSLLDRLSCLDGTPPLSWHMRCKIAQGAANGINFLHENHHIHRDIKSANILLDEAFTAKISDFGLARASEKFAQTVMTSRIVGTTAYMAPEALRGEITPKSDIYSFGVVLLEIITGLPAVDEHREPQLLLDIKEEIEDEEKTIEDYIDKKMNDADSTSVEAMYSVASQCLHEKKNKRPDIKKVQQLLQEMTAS
Procedure: The assays were performed in U-bottom 384-well plates. […] The reaction was initiated by the combination of IRAK4 with substrates and test compounds. The reaction mixture was incubated at room temperature for 60 min. and terminated by adding 45 μL of 35 mM EDTA to each sample. The reaction mixture was analyzed on the Caliper LABCHIP® 3000 (Caliper, Hopkinton, MA) by electrophoretic separation of the fluorescent substrate and phosphorylated product. […] The final concentrations of reagents in the assays are ATP, 500 μM; FL-[…] peptide 1.5 μM; IRAK4, 0.6 nM; and DMSO, 1.6%.

Row | IC50 [1] [nM] | IC50 (IRAK4) [nM] | SMILES
1 | 2130 | 2.8 | CC[C@@H]1[C@H](F)C(=O)N[C@@H]1COc1nccc2cc(C(N)=O)c3ncccc3c12 [Example 56, 1-(((2S,3S,4S)-3-ethyl-4-fluoro-5-oxopyrrolidin-2-yl)methoxy)-2,7-phenanthroline-6-carboxamide]
2 | 1460 | 9.7 | CC[C@@H]1CC(=O)N[C@@H]1COC1=CC(F)=CC2C=C(C(N)=O)c3nccn3C12 (stereo partly drawn) [Example 57, 9-(((2S,3R)-3-ethyl-5-oxopyrrolidin-2-yl)methoxy)-7-fluoro-5a,9a-dihydroimidazo[1,2-a]quinoline-4-carboxamide]
3 | 4230 | 15.4 | CC[C@@H]1[C@H](F)C(=O)N[C@@H]1COC1=CC(F)=CC2C=C(C(N)=O)c3nccn3C12 (stereo partly drawn) [Example 58, 9-(((2S,3S,4S)-3-ethyl-4-fluoro-5-oxopyrrolidin-2-yl)methoxy)-7-fluoro-5a,9a-dihydroimidazo[1,2-a]quinoline-4-carboxamide]
4 | 2510 | 2.3 | CC[C@@H]1[C@H](F)C(=O)N[C@@H]1COC1=CC=CC2C=C(C(N)=O)n3nc(C)cc3C12 (stereo partly drawn) [Example 62, 10-(((2S,3S,4S)-3-ethyl-4-fluoro-5-oxopyrrolidin-2-yl)methoxy)-2-methyl-6a,10a-dihydropyrazolo[5,1-a]isoquinoline-5-carboxamide]
